Data on three molecules can be found in US20120149766A1, “DIETARY AND PHARMACEUTICAL COMPOSITIONS COMPRISING A SAGE EXTRACT CONTAINING A MIXTURE OF TRICYCLIC […] THEIR DERIVATIVES AND THEIR USES” (DSM IP ASSETS B.V., priority 2006, published 2012).

The test system of data set [1] is mouse. As to the kind of experiment: Light-dark box test in the mouse. The class given is in vivo. From the text: The method, which detects anxiolytic activity, follows that described by Crawley (1981, Pharmacol. Biochem. Behav., 15:695-699). Anxiolytics increase the time spent in the light compartment.
Animals were placed in the light compartment of a two-compartment box with one half light and open (25×27×27 cm) and the other half dark and closed (20×27×27 cm). The time spent in each compartment as well as the number of times the animal crossed from one side to the other was scored during a 3-min test. 15 mice were studied per group. The test was performed blind.
Clobazam (32 mg/kg p.o., dispersed in 0.2% w/v hydroxypropylmethyl cellulose in distilled water), administered 1 h before the test, was used as reference substance. Mice in this group received additional administrations of vehicle at 24 h and 5 h before the test in order to maintain experimental blinding.

Data set [2] has as its system mouse. The following applies: for Number of marbles covered by sawdust, mean ± s.e.m.: 30-min test. The procedure:
Mice (n=15 per treatment group) were individually placed in transparent plastic cages (33×21×18 cm) with 5 cm of sawdust on the floor and 25 marbles (diameter 1 cm) grouped in the centre of the cage. A second, up-turned, cage served as a lid. The number of marbles covered by sawdust (by at least two-thirds) was counted at the end of the 30-min test period. Tests were performed by investigators blind to the drug treatment protocol.
Prior to testing, all test cages and marbles were “impregnated” by leaving 10 naive mice in each cage for 15 minutes.
Sage extract B (30, 100, 300 mg/kg, p.o., 24, 5 and 1 h prior to the test) was thus investigated in the marble burying test to evaluate its potential anxiolytic effects in the mouse. Clobazam, fluoxetine and venlafaxine were used as reference compounds.

The mark [3] stands for this setting: 32 mg/kg p.o. −1 h (vehicle at −24 h, −5 h).
[4] abbreviates: 32 mg/kg p.o. −1 h (vehicle at −24 h, −5 h), 3-min test.
Where [5] appears, read: 32 mg/kg p.o. −1 h (vehicle at −24 h and −5 h).
[6] abbreviates: 10 mg/kg p.o. −24 h, −5 h and −1 h.
[7] abbreviates: 24 mg/kg p.o. −24 h, −5 h and −1 h.

Each structure is given as a SMILES string. Like-named read-outs stand apart in the source and are kept apart here.

Consider `CN1C(=O)CC(=O)N(c2ccccc2)c2cc(Cl)ccc21` [Clobazam, clobazam], for which, in the data set with mouse [1] (setting [3]), the “Number of crossings, % change from control” value was “+6%” and the “Time spent in light compartment, % change from control” value is reported as “+75%”. For the same molecule, in the data set with mouse [1] (setting [4]), the “Number of crossings, mean ± s.e.m.” value amounted to 11.9 ± 1.8 NS and the “Time spent in light compartment, mean ± s.e.m.” value was 125.5 ± 6.4 s. Also, the “Sedation (animals/group)” value in the data set with mouse [1] (32 mg/kg p.o., mouse) is 2/15. Also, in the data set with mouse [2] (setting [5]), the “Number of marbles covered by sawdust, % change from control” value is listed as −84% and the “Number of marbles covered by sawdust, mean ± s.e.m.” value (from here on “Number … by sawdust, mean ± s.e.m.”) stood at 2.9 ± 1.2.
For the molecule `CNCCC(Oc1ccc(C(F)(F)F)cc1)c1ccccc1` (stereo not shown) [Fluoxetine, fluoxetine], in the data set with mouse [2] (setting [6]), the “Number of marbles covered by sawdust, % change from control” value is listed as −58% and the “Number … by sawdust, mean ± s.e.m.” value is recorded as 7.6 ± 1.6.
With `COc1ccc(C(CN(C)C)C2(O)CCCCC2)cc1` (stereo not shown) [Venlafaxine, venlafaxine], in the data set on mouse [2] (setting [7]), the “Number of marbles covered by sawdust, % change from control” value is −47% and the “Number … by sawdust, mean ± s.e.m.” value was 9.5 ± 1.8. In addition, in the data set on mouse [2] (24 mg/kg p.o., mouse), the “Dead after the first administration (animals/group)” value is “#dead after the first administration ( 1/15) and after the second administration ( 1/15)”; the “Dead after the second administration (animals/group)” value is “#dead after the first administration ( 1/15) and after the second administration ( 1/15)”.
